# Like-named read-outs stand apart in the source and are kept apart here.
# Tests used:
# [1] = test system: prodromal patients (schizophrenia prodrome); assay: ongoing unpublished open label trial of ethyl-EPA, design nearly identical to the glycine pilot study; type: in vivo, human; settings: 8 weeks, n=7
# Text: Group SOPS change analysis. […] The effect sizes observed with glycine are substantially larger than those observed in my parallel studies with other medications (Table 2). Data for the placebo and olanzapine samples shown are from the published double blind randomized comparison of olanzapine vs placebo (Woods et al., 2003). […] The very large differences between the glycine effect sizes and the placebo effect sizes provide strong support for efficacy. The large differences between the glycine effect sizes and the olanzapine effect sizes are also impressive.
# [2] = molecular target: glycine binding site of the NMDA receptor (Homo sapiens, UniProt Q05586); settings: partial agonist; cited from earlier work
# [3] = test system: chronic patients with persistent negative symptoms (schizophrenia); settings: 157 chronic patients, four sites, adjunctive treatment vs placebo; cited from earlier work
# [4] = test system: prodromal patients; settings: risperidone plus cognitive therapy plus usual care; 59 patients randomized; cited from earlier work
# [5] = test system: prodromal patients (schizophrenia prodrome)
# Text: I therefore treated 10 patients meeting criteria for the schizophrenia prodrome with the NMDA […] glycine, used alone without antipsychotic medication. […] To my knowledge, this represents the first attempt to use direct or indirect NMDA/glycine agonists for patients with the schizophrenia prodrome.
# The inventor of the present invention enrolled 10 prodromal patients in an eight-week open label trial of oral glycine. The patients were seven males and three females, whose mean±sd age was 17.3±3.3 years. All ten patients met schizophrenia prodrome diagnostic criteria, attenuated positive symptom subgroup, according to the Structured Interview for Prodromal Syndromes (Miller et al., 2002). The mean Scale of Prodromal Symptoms (SOPS) total score at baseline was 39.7, and the positive and negative subscale score means were respectively 11.3 and 12.4 (Table 1).
# Glycine was administered orally as powder mixed with water at a dose titrated to 0.4 g/kg BID by week two. Concomitant medications were continued so long as there had been no dose adjustments in the eight weeks prior to enrollment and the patient continued to meet prodromal symptomatic criteria at baseline. Efficacy was assessed using the Scale of Prodromal Symptoms (SOPS). The SOPS consists of 19 items, each scored 0-6, and yields a total score and positive symptom (5 items), negative symptom (six items), disorganization (4 items), and general symptom (4 items) subscale scores.
# Categorical outcomes. […] These criteria required all five positive symptom ratings to be below the prodromal range (2 or below).
# Group SOPS change analysis. […] Data for the placebo and olanzapine samples shown are from the published double blind randomized comparison of olanzapine vs placebo (Woods et al., 2003). Data for ethyl-EPA (an omega-3 fatty acid) are from an ongoing unpublished open label trial that follows a design nearly identical to the current glycine pilot study.
# To accomplish this we modified for the one sample case the sequential monitoring method of O'Brien and Fleming that protects the overall alpha from […] due to multiple looks (Woods and McGlashan, 2002). […] Analyses were planned every 5 patients.
# [6] = test system: acutely exacerbated patients (schizophrenia); settings: 65 acutely exacerbated patients, in addition to antipsychotic; cited from earlier work
# [7] = 8 weeks, n=10, baseline score as covariate
# [8] = 8 weeks, open label glycine, n=10
# [9] = endpoint (LOCF) minus baseline, 8 weeks, n=10
# [10] = oral glycine titrated to 0.4 g/kg BID, 8 weeks, LOCF, n=10
smiles,measurement,setting,value
"CC/C=C\C/C=C\C/C=C\C/C=C\C/C=C\CCCC(=O)OCC [Ethyl-EPA, ethyl-EPA]","SOPS LOCF within group effect size, DIS",[1],−0.05
same,"SOPS LOCF within group effect size, GEN",[1],−0.17
same,"SOPS LOCF within group effect size, NEG",[1],0.24
same,"SOPS LOCF within group effect size, POS",[1],0.47
same,"SOPS LOCF within group effect size, TOTAL",[1],0.18
"NC1CONC1=O [D-cycloserine, 4-aminoisoxazolidin-3-one, reference compound]","activation relative to that seen with glycine, D-alanine or D-serine",[2],40-60%
same,difference among treatment groups,[3],no significant differences overall among groups
Cc1nc2n(c(=O)c1CCN1CCC(c3noc4cc(F)ccc34)CC1)CCCC2 [risperidone],six month conversion to psychosis rate,[4],9.7%
"NCC(=O)O [Glycine, glycine]",difference among treatment groups,[3],no significant differences overall among groups
same,"group SOPS change, LOCF analysis","[5]; 8 weeks, n=10",improved significantly as a group on the total score and on all four subscales
same,"group SOPS change, MMRM analysis","[5]; 8 weeks, n=10",improved significantly as a group on the total score and on 3/4 subscales
same,"MMRM-based within group SOPS improvement, DIS",[5]; [7],3.9 ± 2.2
same,"MMRM-based within group SOPS improvement, GEN",[5]; [7],4.1 ± 3.5
same,"MMRM-based within group SOPS improvement, NEG",[5]; [7],3.0 ± 5.2
same,"MMRM-based within group SOPS improvement, POS",[5]; [7],7.4 ± 3.2
same,"MMRM-based within group SOPS improvement, TOTAL",[5]; [7],18.2 ± 9.9
same,"SOPS LOCF within group effect size, DIS",[5]; [8],1.05
same,"SOPS LOCF within group effect size, GEN",[5]; [8],1.12
same,"SOPS LOCF within group effect size, NEG",[5]; [8],0.74
same,"SOPS LOCF within group effect size, POS",[5]; [8],1.10
same,"SOPS LOCF within group effect size, TOTAL",[5]; [8],1.39
same,conversion to psychosis,"[5]; 10 glycine-treated patients, 8 weeks",None of the glycine-treated patients converted to psychosis
same,sequential monitoring vs historical placebo (sufficiency),[5]; O'Brien and Fleming method modified for one sample,crossed the decision boundary for sufficiency after 10 patients
same,"SOPS DIS score, baseline mean","[5]; baseline, before glycine, disorganization subscale, n=10",6.5
same,"SOPS GEN score, baseline mean","[5]; baseline, before glycine, general symptom subscale, n=10",9.5
same,"SOPS TOTAL score, baseline mean","[5]; baseline, before glycine, n=10",39.7
same,"SOPS NEG score, baseline mean","[5]; baseline, before glycine, negative symptom subscale, n=10",12.4
same,"SOPS POS score, baseline mean","[5]; baseline, before glycine, positive symptom subscale, n=10",11.3
same,"SOPS DIS endpoint change, mean",[5]; [9],−3.1
same,"SOPS GEN endpoint change, mean",[5]; [9],−3.5
same,"SOPS NEG endpoint change, mean",[5]; [9],−3.0
same,"SOPS POS endpoint change, mean",[5]; [9],−5.7
same,"SOPS TOTAL endpoint change, mean",[5]; [9],−15.3
same,early remission criteria met (all five positive symptom ratings 2 or below),"[5]; of the seven completers, during 8 weeks on glycine",three met early remission criteria
same,"SOPS DIS score, endpoint (LOCF) mean",[5]; [10],3.4
same,"SOPS GEN score, endpoint (LOCF) mean",[5]; [10],6.0
same,"SOPS NEG score, endpoint (LOCF) mean",[5]; [10],9.4
same,"SOPS POS score, endpoint (LOCF) mean",[5]; [10],5.6
same,"SOPS TOTAL score, endpoint (LOCF) mean",[5]; [10],24.4
N[C@H](CO)C(=O)O [D-serine],separation from placebo,[6],did not separate from placebo
CNCC(=O)O [sarcosine],separation from placebo,[6],did

# — US8492418B2, “Method of treating schizophrenia prodrome” (Yale University, priority 2005, dated 2013)
